Data taken from patent US10793563B2, “GCN2 inhibitors and uses thereof” (Merck Patent GmbH, priority 2018, dated 2020).

Legend:
GCN2 kinase = GCN2 kinase (Homo sapiens (Human), UniProt Q9P2K8); assay: GCN2 Enzyme Inhibition Assay (Transcreener ADP2 fluorescence polarization); type: biochemical; conditions: 280 μM ATP, 200 μM (RS)7 peptide, 4 nM GCN2, 25° C.; for Ki: Ki(app)
Summary of the method: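 At 25 °C, GCN2 kinase (typical final concentration 4 nM) and (RS)7 peptide in Tris-HCl pH 7.5 buffer with MgCl2, NaCl and DTT were preincubated with compound for 10 min, then ATP was added for a 1 h reaction. ADP was read by FP with antibody/Alexa633 tracer. Non-linear tight-binding analysis gave IC50 and apparent Ki.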

[1] = target: intracellular GCN2 (phosphorylation of the GCN2 substrate eIF2α) (Homo sapiens (Human), UniProt Q9P2K8); assay: GCN2 Cellular Inhibition Assay (AlphaScreen SureFire P-eIF2α Ser51, borrelidin-treated U2OS cells); type: cell-based; conditions: 10 μM borrelidin, 1 h, phosphorylated eIF2α Ser51, read-out: GCN2 Biomarker (IC50)
Chain of intracellular GCN2 (phosphorylation of the GCN2 substrate eIF2α) (Q9P2K8 whole entry): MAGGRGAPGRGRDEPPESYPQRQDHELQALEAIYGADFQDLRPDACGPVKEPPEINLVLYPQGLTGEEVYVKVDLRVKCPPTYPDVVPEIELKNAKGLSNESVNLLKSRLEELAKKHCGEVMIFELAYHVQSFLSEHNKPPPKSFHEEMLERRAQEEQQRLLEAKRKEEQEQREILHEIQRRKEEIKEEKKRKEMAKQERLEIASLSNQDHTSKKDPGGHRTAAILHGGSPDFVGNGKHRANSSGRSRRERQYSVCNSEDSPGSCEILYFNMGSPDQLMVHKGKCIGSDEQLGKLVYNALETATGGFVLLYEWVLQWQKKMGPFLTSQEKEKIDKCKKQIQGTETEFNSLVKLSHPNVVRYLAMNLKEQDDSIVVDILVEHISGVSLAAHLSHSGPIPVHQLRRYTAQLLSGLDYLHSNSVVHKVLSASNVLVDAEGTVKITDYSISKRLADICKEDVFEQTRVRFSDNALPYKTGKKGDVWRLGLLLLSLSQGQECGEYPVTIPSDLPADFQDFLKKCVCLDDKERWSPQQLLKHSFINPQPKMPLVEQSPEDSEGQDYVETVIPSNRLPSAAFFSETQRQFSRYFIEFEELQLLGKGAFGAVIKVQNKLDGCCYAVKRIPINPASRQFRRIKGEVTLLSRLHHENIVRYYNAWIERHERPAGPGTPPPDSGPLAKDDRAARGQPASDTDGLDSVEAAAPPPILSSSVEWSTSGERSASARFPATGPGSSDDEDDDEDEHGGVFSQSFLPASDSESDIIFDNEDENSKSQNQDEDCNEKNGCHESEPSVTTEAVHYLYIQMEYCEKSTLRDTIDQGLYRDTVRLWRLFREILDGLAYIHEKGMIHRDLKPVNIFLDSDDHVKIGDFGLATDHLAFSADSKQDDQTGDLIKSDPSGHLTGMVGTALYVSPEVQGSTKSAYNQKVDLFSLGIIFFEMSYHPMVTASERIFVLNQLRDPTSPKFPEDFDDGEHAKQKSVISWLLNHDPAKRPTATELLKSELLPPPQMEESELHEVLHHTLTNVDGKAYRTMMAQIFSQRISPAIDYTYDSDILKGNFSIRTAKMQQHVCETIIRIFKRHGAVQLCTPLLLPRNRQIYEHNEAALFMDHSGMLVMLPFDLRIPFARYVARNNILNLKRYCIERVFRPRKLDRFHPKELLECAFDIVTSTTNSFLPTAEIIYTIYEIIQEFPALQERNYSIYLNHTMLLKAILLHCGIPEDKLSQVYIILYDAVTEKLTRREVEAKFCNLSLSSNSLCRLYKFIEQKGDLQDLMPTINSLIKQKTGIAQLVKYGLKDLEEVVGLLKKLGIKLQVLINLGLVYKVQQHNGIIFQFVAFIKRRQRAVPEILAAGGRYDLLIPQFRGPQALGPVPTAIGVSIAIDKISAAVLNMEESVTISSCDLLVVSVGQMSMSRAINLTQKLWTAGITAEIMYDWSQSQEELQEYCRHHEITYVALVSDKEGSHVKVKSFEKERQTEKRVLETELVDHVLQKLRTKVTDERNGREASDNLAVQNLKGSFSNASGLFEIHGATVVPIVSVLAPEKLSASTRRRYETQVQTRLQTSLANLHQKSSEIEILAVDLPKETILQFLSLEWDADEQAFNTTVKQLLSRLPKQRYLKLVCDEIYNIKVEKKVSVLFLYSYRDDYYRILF
Method: Compounds can be screened for their ability to inhibit intracellular GCN2 using an AlphaScreen assay (Perkin Elmer) to detect phosphorylation of the GCN2 substrate eIF2α in borrelidin-treated cells. U2OS cells are plated at 5,000 cells per well in 384-well white polystyrene plates (Corning 3570) in McCoy's 5A media (GIBCO 26600-023) supplemented with 10% foetal bovine serum (SAFC 12103C), Penicillin/Streptomycin solution diluted 1:100 (Sigma P0781), and 2 mM L-glutamine (Sigma G7513), and allowed to adhere overnight at 37° C. in 5% CO2. Compounds are then added to the cell media from a final concentration of 40 μM in 4-fold serial dilutions. Borrelidin (FluoroChem M01440) is immediately added to the wells to a final concentration of 10 μM and the cells are incubated for 1 h at 37° C. in 5% CO2. After 1 h of treatment with borrelidin, the media is removed, and the cells are lysed with lysis buffer (TGR BioSceinces TGRLB) at ambient temperature.
An AlphaScreen SureFire P-eIF2α (Ser51) assay kit (Perkin Elmer TGREIF2S) was used to measure levels of eIF2α phosphorylated on Serine 51. Anti-phosphorylated eIF2α Ser51 antibody-linked acceptor beads (TGR BioScience 6760617) are added to the cell homogenate (diluted 1:250 into a mixture of activation (TGR BioScience TGRAB) and reaction buffer (TGR BioScience TGREIF2S) prepared immediately before use). The plate is then incubated for 2 h at ambient temperature in the dark. Anti-eIF2α antibody-linked donor beads (TGR BioScience 6760617) were then added (diluted 1:100 in dilution buffer (TGR BioScience TGRDB) prepared immediately before use). The plate is then incubated overnight at ambient temperature in the dark.
Plates are analyzed on an Alpha Technology-compatible PHERAstar FS plate reader (BMG Labtech Version 1.14) to quantify phosphorylated eIF2α Ser51 levels. The percentage inhibition of phosphorylated eIF2α is calculated by comparison to control wells stimulated with borrelidin alone.

Chain of GCN2 kinase (Q9P2K8 whole entry): as above

Structure (SMILES) | IC50 (GCN2 kinase) [nM] | IC50 [1] [nM] | Ki (GCN2 kinase) [nM]
FC(F)(F)c1ccc2ncc(-c3nccc(N4CCCC5(CNC5)C4)n3)n2c1 [I-413, 6-(2-(6-(trifluoromethyl)imidazo[1,2-a]pyridin-3-yl)pyrimidin-4-yl)-2,6-diazaspiro[3.5]nonane] | 100 to 1000 | > 5000 | –
NC(=O)[C@@H]1CN(c2ccnc(-c3cnc4cc(F)c(Cl)cn34)n2)CCN1C1CC1 [I-424, (S)-4-(2-(6-chloro-7-fluoroimidazo[1,2-a]pyridin-3-yl)pyrimidin-4-yl)-1-cyclopropylpiperazine-2-carboxamide] | 10 to 100 | 500 to 5000 | –
NC(=O)C1CN(c2ccnc(-c3cnc4ccc(C(F)(F)F)cn34)n2)CCN1C1CC1 (stereo not drawn) [I-311, 1-cyclopropyl-4-(2-(6-(trifluoromethyl)imidazo[1,2-a]pyridin-3-yl)pyrimidin-4-yl)piperazine-2-carboxamide] | 10 to 100 | 500 to 5000 | –
COCCn1cc([C@H]2C[C@H](C)CN(c3nccc(-c4cnc5ccc(C(F)(F)F)cn45)n3)C2)cn1 [I-144, 3-(2-((3R,5S)-3-(1-(2-methoxyethyl)-1H-pyrazol-4-yl)-5-methylpiperidin-1-yl)pyrimidin-4-yl)-6-(trifluoromethyl)imidazo[1,2-a]pyridine] | 100 to 1000 | < 500 | –
Cc1cc(-c2cnc3ccc(N4CC(F)(F)C4)cn23)nc(N2C[C@H](C)C[C@H](c3cn[nH]c3)C2)n1 [I-288, 6-(3,3-difluoroazetidin-1-yl)-3-(6-methyl-2-((3R,5R)-3-methyl-5-(1H-pyrazol-4-yl)piperidin-1-yl)pyrimidin-4-yl)imidazo[1,2-a]pyridine] | < 10 | < 500 | –
CC1(C)CC1CN1CCN(c2ccnc(-c3cnc4ccc(C(F)(F)F)cn34)n2)CC1c1cn[nH]c1 (stereo not drawn) [I-477, 3-(4-(4-((2,2-dimethylcyclopropyl)methyl)-3-(1H-pyrazol-4-yl)piperazin-1-yl)pyrimidin-2-yl)-6-(trifluoromethyl)imidazo[1,2-a]pyridine] | 10 to 100 | < 500 | –
CC(=O)N1C(C)CN(c2ccnc(-c3cnc4ccc(Cl)cn34)n2)CC1c1cn[nH]c1 (stereo not drawn) [I-277, 1-(4-(2-(6-chloroimidazo[1,2-a]pyridin-3-yl)pyrimidin-4-yl)-2-methyl-6-(1H-pyrazol-4-yl)piperazin-1-yl)ethan-1-one] | 10 to 100 | 500 to 5000 | –
FC(F)c1ccc2ncc(-c3nsc(N4CCOC(c5cn[nH]c5)C4)n3)n2c1 (stereo not drawn) [I-105, 4-(3-(6-(difluoromethyl)imidazo[1,2-a]pyridin-3-yl)-1,2,4-thiadiazol-5-yl)-2-(1H-pyrazol-4-yl)morpholine] | – | > 5000 | 10 to 100
O=C(c1cn[nH]n1)N1CCN(c2ccnc(-c3cnc4ccc(C(F)(F)F)cn34)n2)CC1c1cn[nH]c1 (stereo not drawn) [I-442, (2-(1H-pyrazol-4-yl)-4-(2-(6-(trifluoromethyl)imidazo[1,2-a]pyridin-3-yl)pyrimidin-4-yl)piperazin-1-yl)(2H-1,2,3-triazol-4-yl)methanone] | 10 to 100 | 500 to 5000 | –
CC1(C)CN(c2ccnc(-c3cnc4ccc(C(F)F)cn34)n2)CC2(CN(S(C)(=O)=O)C2)O1 [I-396, 8-(2-(6-(difluoromethyl)imidazo[1,2-a]pyridin-3-yl)pyrimidin-4-yl)-6,6-dimethyl-2-(methylsulfonyl)-5-oxa-2,8-diazaspiro[3.5]nonane] | 10 to 100 | > 5000 | –
CC1CC(N=S(C)(C)=O)CN(c2ccnc(-c3cnc4ccc(C(F)(F)F)cn34)n2)C1 (stereo not drawn) [I-31, Dimethyl((5-methyl-1-(2-(6-(trifluoromethyl)imidazo[1,2-a]pyridin-3-yl)pyrimidin-4-yl)piperidin-3-yl)imino)-λ^6-sulfanone] | – | 500 to 5000 | 10 to 100
CC1(C)C[C@H]1CN1CCN(c2ccnc(-c3cnc4ccc(C(F)(F)F)cn34)n2)C[C@@H]1c1cn[nH]c1 [I-528, 3-(4-((S)-4-(((R)-2,2-dimethylcyclopropyl)methyl)-3-(1H-pyrazol-4-yl)piperazin-1-yl)pyrimidin-2-yl)-6-(trifluoromethyl)imidazo[1,2-a]pyridine] | 10 to 100 | < 500 | –
